Experimental data reported in PubChem BioAssay (NCI).
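In this assay, cells in 96-well plates receive the compound at five concentrations for 48 hours. Endpoints are linearly interpolated between the surrounding concentrations. TGI is the concentration that stops growth completely.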

Experiments:
Experiment in all cases: growth of human tumour cells (NCI), 48 h
786-0 renal = system: 786-0 renal
A498 renal = system: A498 renal
A549 NSCLC = system: A549 NSCLC
ACHN renal = system: ACHN renal
BT-549 breast = system: BT-549 breast
CAKI-1 renal = system: CAKI-1 renal
CCRF-CEM leukemia = system: CCRF-CEM leukemia
COLO 205 colon = system: COLO 205 colon
DU-145 prostate = system: DU-145 prostate
EKVX NSCLC = system: EKVX NSCLC
HCC-2998 colon = system: HCC-2998 colon
HCT-116 colon = system: HCT-116 colon
HCT-15 colon = system: HCT-15 colon
HL-60(TB) leukemia = system: HL-60(TB) leukemia
HOP-62 NSCLC = system: HOP-62 NSCLC
HOP-92 NSCLC = system: HOP-92 NSCLC
HS 578T breast = system: HS 578T breast
HT29 colon = system: HT29 colon
IGROV1 ovarian = system: IGROV1 ovarian
K-562 leukemia = system: K-562 leukemia
KM12 colon = system: KM12 colon
LOX IMVI melanoma = system: LOX IMVI melanoma
M14 melanoma = system: M14 melanoma
MCF7 breast = system: MCF7 breast
MDA-MB-231 breast = system: MDA-MB-231 breast
MDA-MB-435 = system: MDA-MB-435
MDA-N = system: MDA-N
MOLT-4 leukemia = system: MOLT-4 leukemia
NCI-H226 lung = system: NCI-H226 lung
NCI-H23 lung = system: NCI-H23 lung
NCI-H460 lung = system: NCI-H460 lung
NCI/ADR-RES ovarian = system: NCI/ADR-RES ovarian
OVCAR-3 ovarian = system: OVCAR-3 ovarian
OVCAR-4 ovarian = system: OVCAR-4 ovarian
OVCAR-5 ovarian = system: OVCAR-5 ovarian
OVCAR-8 ovarian = system: OVCAR-8 ovarian
PC-3 prostate = system: PC-3 prostate
RPMI-8226 leukemia = system: RPMI-8226 leukemia
RXF 393 renal = system: RXF 393 renal
SF-268 CNS = system: SF-268 CNS
SF-295 CNS = system: SF-295 CNS
SF-539 CNS = system: SF-539 CNS
SK-MEL-2 melanoma = system: SK-MEL-2 melanoma
SK-MEL-28 melanoma = system: SK-MEL-28 melanoma
SK-MEL-5 melanoma = system: SK-MEL-5 melanoma
SK-OV-3 ovarian = system: SK-OV-3 ovarian
SN12C renal = system: SN12C renal
SNB-19 CNS = system: SNB-19 CNS
SNB-75 CNS = system: SNB-75 CNS
SR leukemia = system: SR leukemia
SW-620 colon = system: SW-620 colon
T-47D breast = system: T-47D breast
TK-10 renal = system: TK-10 renal
U251 CNS = system: U251 CNS
UACC-257 melanoma = system: UACC-257 melanoma
UACC-62 melanoma = system: UACC-62 melanoma
UO-31 renal = system: UO-31 renal
MALME-3M melanoma = system: MALME-3M melanoma
NCI-H522 lung = system: NCI-H522 lung

Measured: TGI

c1ccc(-c2cc(-c3cccs3)c(-c3cccs3)o2)cc1
not listed: MALME-3M melanoma | NCI-H522 lung
> 100 µM: all other assays above

O=C(O)C1CCCCC1c1c2ccc(=O)cc-2oc2cc(O)ccc12 (stereo not drawn)
49.1 µM: KM12 colon
72.1 µM: SNB-75 CNS
96.9 µM: U251 CNS
48.7 µM: SF-539 CNS
96.7 µM: HS 578T breast
62.1 µM: NCI-H522 lung
41.3 µM: IGROV1 ovarian
62.6 µM: RXF 393 renal
90.8 µM: OVCAR-8 ovarian
54.4 µM: T-47D breast
96.5 µM: SK-OV-3 ovarian
69.2 µM: OVCAR-3 ovarian
88.1 µM: OVCAR-4 ovarian
78.6 µM: M14 melanoma
49.3 µM: MDA-MB-435
41.1 µM: HOP-92 NSCLC
66.7 µM: DU-145 prostate
not listed: HOP-62 NSCLC | NCI-H226 lung | SR leukemia
> 100 µM: all other assays above
